Columns and labels:
Test in all cases: relative viability vs DMSO control (72 h) (fraction); higher = more viable cells
A204 = test system: A204
Method in brief: (§1)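 Sarcoma cell lines were grown in 384-well plates seeded toward 80–90% confluence and exposed 24 h later to serially diluted compound. After 72 h at 37 °C and 5% CO2, with 0.1% DMSO vehicle and a 5 µM positive control on the plates, ATPLite was read. Relative viability, given as percent growth averaged over up to triplicate wells, was rescaled so that 1 is full and 0 is none.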

G401 = test system: G401
Method in brief: as §1

HS729 = test system: HS729
Method in brief: as §1

KHOS-240S = test system: KHOS-240S
Method in brief: as §1

MES-SA = test system: MES-SA
Method in brief: as §1

SK-ES-1 = test system: SK-ES-1
Method in brief: as §1

SK-LMS-1 = test system: SK-LMS-1
Method in brief: as §1

SW1353 = test system: SW1353
Method in brief: as §1

SW684 = test system: SW684
Method in brief: as §1

SW872 = test system: SW872
Method in brief: as §1

SW982 = test system: SW982
Method in brief: as §1

SYO-1 = test system: SYO-1
Method in brief: as §1

Cc1c(F)cc(C(=O)NC2CC2)cc1-c1ccc(C(=O)NCC(C)(C)C)cn1 [Losmapimod]
Conditions	relative viability
A204, 0.00017 µM	1.06
A204, 0.00051 µM	1.07
A204, 0.00152 µM	1.07
A204, 0.00457 µM	1.06
A204, 0.01372 µM	1.1
A204, 0.04115 µM	1.07
A204, 0.1235 µM	1.07
A204, 0.3704 µM	1.03
A204, 1.111 µM	1.03
A204, 3.333 µM	0.992
A204, 10 µM	0.901
G401, 0.00017 µM	1.06
G401, 0.00051 µM	1.03
G401, 0.00152 µM	1.05
G401, 0.00457 µM	1.074
G401, 0.01372 µM	1.03
G401, 0.04115 µM	1.01
G401, 0.1235 µM	0.981
G401, 0.3704 µM	0.964
G401, 1.111 µM	0.955
G401, 3.333 µM	0.904
G401, 10 µM	0.887
HS729, 0.00017 µM	1.09
HS729, 0.00051 µM	1.04
HS729, 0.00152 µM	1.06
HS729, 0.00457 µM	1.02
HS729, 0.01372 µM	0.972
HS729, 0.04115 µM	0.954
HS729, 0.1235 µM	0.903
HS729, 0.3704 µM	0.848
HS729, 1.111 µM	0.818
HS729, 3.333 µM	0.805
HS729, 10 µM	0.809
KHOS-240S, 0.00017 µM	1.07
KHOS-240S, 0.00051 µM	1.1
KHOS-240S, 0.00152 µM	1.07
KHOS-240S, 0.00457 µM	1.09
KHOS-240S, 0.01372 µM	1.04
KHOS-240S, 0.04115 µM	1.06
KHOS-240S, 0.1235 µM	1.02
KHOS-240S, 0.3704 µM	1
KHOS-240S, 1.111 µM	0.951
KHOS-240S, 3.333 µM	0.97
KHOS-240S, 10 µM	0.893
MES-SA, 0.00017 µM	0.997
MES-SA, 0.00051 µM	0.9963
MES-SA, 0.00152 µM	0.967
MES-SA, 0.00457 µM	0.951
MES-SA, 0.01372 µM	0.96
MES-SA, 0.04115 µM	0.935
MES-SA, 0.1235 µM	0.9396
MES-SA, 0.3704 µM	0.928
MES-SA, 1.111 µM	0.8915
MES-SA, 3.333 µM	0.866
MES-SA, 10 µM	0.879
SK-ES-1, 0.00017 µM	1.08
SK-ES-1, 0.00051 µM	1.12
SK-ES-1, 0.00152 µM	1.09
SK-ES-1, 0.00457 µM	1.11
SK-ES-1, 0.01372 µM	1.07
SK-ES-1, 0.04115 µM	1.02
SK-ES-1, 0.1235 µM	1.01
SK-ES-1, 0.3704 µM	0.993
SK-ES-1, 1.111 µM	0.968
SK-ES-1, 3.333 µM	0.915
SK-ES-1, 10 µM	0.879
SK-LMS-1, 0.00017 µM	1.02
SK-LMS-1, 0.00051 µM	1.02
SK-LMS-1, 0.00152 µM	1.01
SK-LMS-1, 0.00457 µM	1
SK-LMS-1, 0.01372 µM	0.995
SK-LMS-1, 0.04115 µM	1.02
SK-LMS-1, 0.1235 µM	1.005
SK-LMS-1, 0.3704 µM	0.978
SK-LMS-1, 1.111 µM	0.981
SK-LMS-1, 3.333 µM	0.967
SK-LMS-1, 10 µM	0.946
SW684, 0.00017 µM	1.11
SW684, 0.00051 µM	1.2
SW684, 0.00152 µM	1.24
SW684, 0.00457 µM	1.21
SW684, 0.01372 µM	1.18
SW684, 0.04115 µM	1.15
SW684, 0.1235 µM	1.13
SW684, 0.3704 µM	1.25
SW684, 1.111 µM	1.21
SW684, 3.333 µM	1.18
SW684, 10 µM	1.19
SW872, 0.00017 µM	1.04
SW872, 0.00051 µM	1.08
SW872, 0.00152 µM	1.07
SW872, 0.00457 µM	1.05
SW872, 0.01372 µM	1.06
SW872, 0.04115 µM	1.04
SW872, 0.1235 µM	1.06
SW872, 0.3704 µM	1.04
SW872, 1.111 µM	1.05
SW872, 3.333 µM	1.04
SW872, 10 µM	1.04
SW982, 0.00017 µM	1.059
SW982, 0.00051 µM	1.07
SW982, 0.00152 µM	1.09
SW982, 0.00457 µM	1.07
SW982, 0.01372 µM	1.07
SW982, 0.04115 µM	1.07
SW982, 0.1235 µM	1.06
SW982, 0.3704 µM	1.07
SW982, 1.111 µM	1.06
SW982, 3.333 µM	1.02
SW982, 10 µM	1
SW1353, 0.00017 µM	1.06
SW1353, 0.00051 µM	1.06
SW1353, 0.00152 µM	1.08
SW1353, 0.00457 µM	1.07
SW1353, 0.01372 µM	1.09
SW1353, 0.04115 µM	1.08
SW1353, 0.1235 µM	1.08
SW1353, 0.3704 µM	1.09
SW1353, 1.111 µM	1.079
SW1353, 3.333 µM	1.07
SW1353, 10 µM	0.959
SYO-1, 0.00017 µM	0.993
SYO-1, 0.00051 µM	0.992
SYO-1, 0.00152 µM	0.975
SYO-1, 0.00457 µM	0.975
SYO-1, 0.01372 µM	0.954
SYO-1, 0.04115 µM	0.957
SYO-1, 0.1235 µM	0.915
SYO-1, 0.3704 µM	0.865
SYO-1, 1.111 µM	0.852
SYO-1, 3.333 µM	0.813
SYO-1, 10 µM	0.812

Source: the supplement of paper PMC10883282
